Measurements as given in patent US6380198B1 (Laboratoire Medidom S.A., priority 1997, dated 2002).
Where “and” joins values, the source holds several entries; their conditions need not be identical. Equal values may be shown once.

Key:
[1] = test system: intraocular pressure of rabbits showing normal baseline intraocular pressure; assay: Intraocular pressure in rabbits with normal intraocular pressure after topical instillation; type: in vivo, rabbit (Vienna Blue, pigmented); conditions: 50 μl eye-drops; 0.050% flunarizine, equimolar comparators, 0.5% timolol
Experimental: The effects of the agent of the invention on the intraocular pressure of rabbits showing normal baseline intraocular pressure were evaluated in comparison with the action of a placebo, and with that of various other calcium channel blocking agents. Female pigmented rabbits of the Vienna Blue strain were used (supplied by Charles River Italiana, of Calco (CO)). The age of the animals at the time of starting the experimentation was 9 weeks, and their weight was 2.0-2.5 kg.
The choice of a species with pigmented iris is due to the fact that the latter represents a reliable model for the evaluation of possible modifications of the intraocular pressure caused by the products under test. The strain chosen is genetically defined, so as to limit to a minimum the variability of the biological characteristics between one animal and the other.
The animals were kept in rooms maintained under constant and controlled conditions of temperature and humidity, illuminated for 12 hours a day with artificial light and with continuous renovation of the air. The feed consisted of a standard diet having a constant and known composition, and both feed and water were available ad libitum during the whole period of the test. The rabbits were stabled for 21 days before starting the test, so as to allow a sufficient acclimatation and to suitably evaluate the health conditions of the rabbits. Each experimental group consisted of 4 animals, which were allotted to the treatment groups in a randomised way.
Each different group of animals received, by instillation in the right conjunctival fornix, 50 μl of the following products:
The weight concentrations of the various agents under test are chosen so as to correspond to the same molar concentration.
The pressure in the treated eye was measured by flattening tonometer (TonopenXL®, Mentor), 15 minutes before the instillation of the eyerops (time 0) and then 30, 60, 90, 120, 180 and 240 minutes after. As a local anaesthetic, 5 minutes before carrying out each measurement 25 μl of a commercial ophthalmic solution containing 0.4% oxybuprocaine hydrochloride (Novesine®, Sandoz) was instilled. To carry out the measurement the rabbits were placed in a suitably designed cage, that prevents any sudden movement of the animal under test.
For each animal and at each of the times listed above the average of three subsequent measurements was calculated and recorded, each one said measurements being made after 1 minute from the previous one. The intraocular pressure values at the various times were compared with the values obtained before the treatment, by means of the Student's “t” test. The comparisons between different groups were made by processing the data by the variance analysis (ANOVA) and, where possible, by the Student's “t” test for the comparison of two different experimental groups. Values of p<0.05 were considered to be statistically significant.

[2] = test system: intraocular pressure of rabbits with ocular hypertension; assay: Intraocular pressure in rabbits with ocular hypertension induced by α-chymotrypsin; type: in vivo, rabbit (Vienna Blue, pigmented); conditions: for Intraocular pressure (mmHg) at the time (min): 30, average ± S.D. / Intraocular pressure (mmHg) at the time (min): 60, average ± S.D. / Intraocular pressure (mmHg) at the time (min): 90, average ± S.D. / Intraocular pressure (mmHg) at the time (min): 120, average ± S.D. / Intraocular pressure (mmHg) at the time (min): 180, average ± S.D. / Intraocular pressure (mmHg) at the time (min): 240, average ± S.D. / Intraocular pressure (mmHg) at the time (min): 0, average ± S.D. / Intraocular pressure (mmHg) at the time (min): 30 / Intraocular pressure (mmHg) at the time (min): 60 / Intraocular pressure (mmHg) at the time (min): 90 / Intraocular pressure (mmHg) at the time (min): 120 / Intraocular pressure (mmHg) at the time (min): 180 / Intraocular pressure (mmHg) at the time (min): 240 / Intraocular pressure (mmHg) at the time (min): 0: Table 4, 50 μl; for Intraocular pressure (mmHg) at the time (min): 30, average ± S.D. / Intraocular pressure (mmHg) at the time (min): 60, average ± S.D. / Intraocular pressure (mmHg) at the time (min): 90, average ± S.D. / Intraocular pressure (mmHg) at the time (min): 120, average ± S.D. / Intraocular pressure (mmHg) at the time (min): 180, average ± S.D. / Intraocular pressure (mmHg) at the time (min): 240, average ± S.D. / Intraocular pressure (mmHg) at the time (min): 0, average ± S.D.: average ± S.D. of 4 rabbits; for Intraocular pressure (mmHg) at the time (min): 30, average ± S.D. / Intraocular pressure (mmHg) at the time (min): 30: 30 min after instillation; for Intraocular pressure (mmHg) at the time (min): 60, average ± S.D. / Intraocular pressure (mmHg) at the time (min): 60: 60 min after instillation; for Intraocular pressure (mmHg) at the time (min): 90, average ± S.D. / Intraocular pressure (mmHg) at the time (min): 90: 90 min after instillation; for Intraocular pressure (mmHg) at the time (min): 120, average ± S.D. / Intraocular pressure (mmHg) at the time (min): 120: 120 min after instillation; for Intraocular pressure (mmHg) at the time (min): 180, average ± S.D. / Intraocular pressure (mmHg) at the time (min): 180: 180 min after instillation; for Intraocular pressure (mmHg) at the time (min): 240, average ± S.D. / Intraocular pressure (mmHg) at the time (min): 240: 240 min after instillation; for Intraocular pressure (mmHg) at the time (min): 0, average ± S.D. / Intraocular pressure (mmHg) at the time (min): 0: time 0 = 15 min before instillation (baseline); for Intraocular pressure (mmHg) at the time (min): 30 / Intraocular pressure (mmHg) at the time (min): 60 / Intraocular pressure (mmHg) at the time (min): 90 / Intraocular pressure (mmHg) at the time (min): 120 / Intraocular pressure (mmHg) at the time (min): 180 / Intraocular pressure (mmHg) at the time (min): 240 / Intraocular pressure (mmHg) at the time (min): 0: individual rabbit, right eye
Experimental: Rabbits of the same type as those described in the previous section were used for the following tests.
In the rabbit, the injection of this enzyme in the posterior chamber causes, after one month from the administration, an effect of ocular hypertension.
At the end of the quarantine period the rabbits were anaesthetised by intramuscular administration of ketamine hydrochloride and xylazine hydrochloride (RBI). The right eye was gently pushed outwardly after instilling 25 μl of Novesine® eye-drops, containing oxybuprocaine as an anaesthetic; then, a sterile solution of σ-chymotrypsin (SIGMA, Milan; 150 units in 100 μl of physiologic sterile solution) was injected in the posterior chamber of the right eye by means of a 30G sterile needle. After the administration of the enzyme, the eye was thoroughly washed with physiologic sterile solution in order to remove any traces of α-chymotrypsin which could damage the ocular tissues. Then, 2 drops of a commercial ophthalmic antibiotic solution (Colbiocin®, SIFI S.p.A., containing chloramphenicol, rolitetracycline, colistin methanesulphonate) were instilled. The treatment was carried out 3 times a day (at 8.00 a.m., 12.00 a.m. and 6.00 p.m.) for one week after the administration of α-chymotrypsin. The rabbits were employed in the tests after one month from the induction of ocular hypertension by means of the enzyme.
The rabbits, divided also in this case in groups of 4 animals, were treated by instillation of 50 μl of the product under test in the right conjunctival fornix.
The intraocular pressure in the treated eye was measured, according to the same procedure as in the previous tests, 15 minutes before the instillation of the eye-drops and 30, 60, 90, 120, 180 and 240 minutes after. The values obtained were statistically analysed according to the criteria mentioned in the foregoing.
The experimental conditions were exactly the same as before.

[3] = eye-drops with 0.010% flunarizine
[4] = eye-drops with 0.050% flunarizine
[5] = eye-drops with 0.100% flunarizine

## Fc1ccc(C(c2ccc(F)cc2)N2CCN(C/C=C/c3ccccc3)CC2)cc1 [flunarizine]
[1]
  Effect on intraocular pressure in rabbits with normal pressure, in words: better performance in lowering the intraocular pressure than timolol alone
[2]; 50 μl eye-drops, 0.050% flunarizine, equimolar comparators, 0.5% timolol
  Effect on intraocular pressure in rabbits with ocular hypertension, in words: effectiveness comparable to or better than that of timolol alone
[2]; [3]
  Intraocular pressure (mmHg) at the time (min): 30, average ± S.D.: 55.0 ± 5.35 mmHg
  Intraocular pressure (mmHg) at the time (min): 60, average ± S.D.: 52.7 ± 5.18 mmHg
  Intraocular pressure (mmHg) at the time (min): 90, average ± S.D.: 52.5 ± 5.44 mmHg
  Intraocular pressure (mmHg) at the time (min): 120, average ± S.D.: 55.7 ± 5.18 mmHg
  Intraocular pressure (mmHg) at the time (min): 180, average ± S.D.: 56.5 ± 6.60 mmHg
  Intraocular pressure (mmHg) at the time (min): 240, average ± S.D.: 57.5 ± 6.55 mmHg
  Intraocular pressure (mmHg) at the time (min): 0, average ± S.D.: 57.5 ± 6.13 mmHg
  Intraocular pressure (mmHg) at the time (min): 30: 50 mmHg and 58 mmHg and 61 mmHg and 51 mmHg
  Intraocular pressure (mmHg) at the time (min): 60: 48 mmHg and 55 mmHg and 59 mmHg and 49 mmHg
  Intraocular pressure (mmHg) at the time (min): 90: 49 mmHg and 53 mmHg and 60 mmHg and 48 mmHg
  Intraocular pressure (mmHg) at the time (min): 120: 51 mmHg and 58 mmHg and 62 mmHg and 52 mmHg
  Intraocular pressure (mmHg) at the time (min): 180: 50 mmHg and 60 mmHg and 64 mmHg and 52 mmHg
  Intraocular pressure (mmHg) at the time (min): 240: 52 mmHg (2×) and 61 mmHg and 65 mmHg
  Intraocular pressure (mmHg) at the time (min): 0: 52 mmHg and 60 mmHg and 65 mmHg and 53 mmHg
[2]; [4]
  Intraocular pressure (mmHg) at the time (min): 30, average ± S.D.: 39.5 ± 7.32 mmHg
  Intraocular pressure (mmHg) at the time (min): 60, average ± S.D.: 37.7 ± 7.27 mmHg
  Intraocular pressure (mmHg) at the time (min): 90, average ± S.D.: 40.7 ± 7.63 mmHg
  Intraocular pressure (mmHg) at the time (min): 120, average ± S.D.: 42.2 ± 7.36 mmHg
  Intraocular pressure (mmHg) at the time (min): 180, average ± S.D.: 47.0 ± 8.28 mmHg
  Intraocular pressure (mmHg) at the time (min): 240, average ± S.D.: 47.2 ± 8.18 mmHg
  Intraocular pressure (mmHg) at the time (min): 0, average ± S.D.: 47.7 ± 9.03 mmHg
  Intraocular pressure (mmHg) at the time (min): 30: 47 mmHg and 38 mmHg and 30 mmHg and 43 mmHg
  Intraocular pressure (mmHg) at the time (min): 60: 45 mmHg and 37 mmHg and 28 mmHg and 41 mmHg
  Intraocular pressure (mmHg) at the time (min): 90: 50 mmHg and 38 mmHg and 32 mmHg and 43 mmHg
  Intraocular pressure (mmHg) at the time (min): 120: 51 mmHg and 39 mmHg and 34 mmHg and 45 mmHg
  Intraocular pressure (mmHg) at the time (min): 180: 56 mmHg and 44 mmHg and 37 mmHg and 51 mmHg
  Intraocular pressure (mmHg) at the time (min): 240: 56 mmHg and 45 mmHg and 37 mmHg and 51 mmHg
  Intraocular pressure (mmHg) at the time (min): 0: 57 mmHg and 46 mmHg and 36 mmHg and 52 mmHg
[2]; [5]
  Intraocular pressure (mmHg) at the time (min): 30, average ± S.D.: 42.2 ± 5.31 mmHg
  Intraocular pressure (mmHg) at the time (min): 60, average ± S.D.: 39.2 ± 4.57 mmHg
  Intraocular pressure (mmHg) at the time (min): 90, average ± S.D.: 43.0 ± 5.71 mmHg
  Intraocular pressure (mmHg) at the time (min): 120, average ± S.D.: 45.0 ± 5.71 mmHg
  Intraocular pressure (mmHg) at the time (min): 180, average ± S.D.: 48.5 ± 6.24 mmHg
  Intraocular pressure (mmHg) at the time (min): 240, average ± S.D.: 49.7 ± 5.73 mmHg
  Intraocular pressure (mmHg) at the time (min): 0, average ± S.D.: 49.7 ± 6.6 mmHg
  Intraocular pressure (mmHg) at the time (min): 30: 48 mmHg and 40 mmHg and 36 mmHg and 45 mmHg
  Intraocular pressure (mmHg) at the time (min): 60: 45 mmHg and 38 mmHg and 34 mmHg and 40 mmHg
  Intraocular pressure (mmHg) at the time (min): 90: 49 mmHg and 41 mmHg and 36 mmHg and 46 mmHg
  Intraocular pressure (mmHg) at the time (min): 120: 51 mmHg and 43 mmHg and 38 mmHg and 48 mmHg
  Intraocular pressure (mmHg) at the time (min): 180: 56 mmHg and 47 mmHg and 41 mmHg and 50 mmHg
  Intraocular pressure (mmHg) at the time (min): 240: 57 mmHg and 49 mmHg and 43 mmHg and 50 mmHg
  Intraocular pressure (mmHg) at the time (min): 0: 58 mmHg and 48 mmHg and 42 mmHg and 51 mmHg
